The experiment addresses T1, recombinant human E-selectin (Homo sapiens, UniProt P16581).
T1 sequence (P16581 22-556 limits assumed): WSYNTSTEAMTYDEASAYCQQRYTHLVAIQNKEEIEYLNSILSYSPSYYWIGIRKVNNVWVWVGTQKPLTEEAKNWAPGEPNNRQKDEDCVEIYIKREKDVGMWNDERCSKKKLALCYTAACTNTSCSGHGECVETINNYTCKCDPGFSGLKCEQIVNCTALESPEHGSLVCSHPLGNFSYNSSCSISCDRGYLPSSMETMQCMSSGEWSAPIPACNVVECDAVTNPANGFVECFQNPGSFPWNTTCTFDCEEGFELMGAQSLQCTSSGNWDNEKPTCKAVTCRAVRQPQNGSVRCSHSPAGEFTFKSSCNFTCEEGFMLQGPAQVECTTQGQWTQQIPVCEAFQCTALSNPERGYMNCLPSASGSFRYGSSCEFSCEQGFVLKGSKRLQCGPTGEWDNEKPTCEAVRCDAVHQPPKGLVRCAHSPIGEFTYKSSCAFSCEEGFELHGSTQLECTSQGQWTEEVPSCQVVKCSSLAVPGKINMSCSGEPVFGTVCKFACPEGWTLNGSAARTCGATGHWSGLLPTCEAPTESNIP
The experiment can be described thus: Surface plasmon resonance. Format: binding. The note with it: SPR, peptide M versus peptide K.

The source of these data is article PMC3366278 (Biomaterials, 2012).

The structures appear in SMILES notation. Where a SMILES comes first, the peptide text is derived from it.

As to `CC[C@H](C)[C@H](NC(=O)[C@H](CC(=O)O)NC(=O)[C@H](CO)NC(=O)CNC(=O)[C@@H](N)CS)C(=O)N[C@H](C(=O)N[C@@H](Cc1c[nH]c2ccccc12)C(=O)N[C@@H](CC(=O)O)C(=O)N[C@@H](CCC(N)=O)C(=O)N[C@@H](CC(C)C)C(=O)N[C@@H](Cc1c[nH]c2ccccc12)C(=O)N[C@@H](CC(=O)O)C(=O)N[C@@H](CC(C)C)C(=O)N[C@@H](CCSC)C(=O)O)[C@@H](C)O` [Peptide M, CGSDITWDQLWDLM] (H-CGSDITWDQLWDLM-OH), the “koff relative to peptide K (times faster)” value worked out at 10 times.
